The source made the active and inactive calls. The calls are words filed in the database; no cut-off is given here.

One experiment deals with Escherichia coli. The experiment can be described thus: Competitive inhibition of Escherichia coli pEK17/EK1104 ATCase catalytic subunit assessed as formation of N-carbamoyl-L-aspartate by colorimetric assay.
The nature of experiment [1]: Inhibition of Escherichia coli pEK17/EK1104 ATCase catalytic subunit assessed as formation of N-carbamoyl-L-aspartate by colorimetric assay relative to carbamyl phosphate.

Broadly, the Ki is a measure of affinity in units of concentration, obtained from inhibition or displacement. On to `O=C(O)C[C@H](NC(=O)CP(=O)(O)CO)C(=O)O`, for which the outcome with Escherichia coli was Active. In addition, in experiment [1], the inhibitory constant (Ki) amounted to 193 nM.
For `O=C(O)C[C@H](NC(=O)CP(=O)(O)O)C(=O)O` [PALA] the same measures were “Active” and 16 nM.
With `O=C(O)C[C@H](NC(=O)C[PH](=O)O)C(=O)O`, in the experiment on Escherichia coli, the outcome was Active. Moreover, the Ki in experiment [1] worked out at 417 nM.

Source of the values: ChEMBL document CHEMBL1143277, “Submicromolar phosphinic inhibitors of Escherichia coli aspartate transcarbamoylase” (Bioorg Med Chem Lett, 2009).
